Source: US20240109917A1 (ACTELION PHARMACEUTICALS LTD, priority 2020, published 2024)
Like-named read-outs stand apart in the source and are kept apart here.

Target: PDGFRβ (Rattus norvegicus (Rat), UniProt Q05030)
Test: PDGFRβ Cellular Assay (PDGFRb P-Y751 HTRF in A10 cells stimulated with PDGF-BB)
Type: cell-based
Method in brief: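 Phospho-Y751 PDGFRβ was measured by HTRF in lysates of A10 rat cells. Cells received compound for 3 hours before PDGF-BB stimulation (100 ng/mL working stock).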

PDGFRβ, sequence (Q05030 32-1097): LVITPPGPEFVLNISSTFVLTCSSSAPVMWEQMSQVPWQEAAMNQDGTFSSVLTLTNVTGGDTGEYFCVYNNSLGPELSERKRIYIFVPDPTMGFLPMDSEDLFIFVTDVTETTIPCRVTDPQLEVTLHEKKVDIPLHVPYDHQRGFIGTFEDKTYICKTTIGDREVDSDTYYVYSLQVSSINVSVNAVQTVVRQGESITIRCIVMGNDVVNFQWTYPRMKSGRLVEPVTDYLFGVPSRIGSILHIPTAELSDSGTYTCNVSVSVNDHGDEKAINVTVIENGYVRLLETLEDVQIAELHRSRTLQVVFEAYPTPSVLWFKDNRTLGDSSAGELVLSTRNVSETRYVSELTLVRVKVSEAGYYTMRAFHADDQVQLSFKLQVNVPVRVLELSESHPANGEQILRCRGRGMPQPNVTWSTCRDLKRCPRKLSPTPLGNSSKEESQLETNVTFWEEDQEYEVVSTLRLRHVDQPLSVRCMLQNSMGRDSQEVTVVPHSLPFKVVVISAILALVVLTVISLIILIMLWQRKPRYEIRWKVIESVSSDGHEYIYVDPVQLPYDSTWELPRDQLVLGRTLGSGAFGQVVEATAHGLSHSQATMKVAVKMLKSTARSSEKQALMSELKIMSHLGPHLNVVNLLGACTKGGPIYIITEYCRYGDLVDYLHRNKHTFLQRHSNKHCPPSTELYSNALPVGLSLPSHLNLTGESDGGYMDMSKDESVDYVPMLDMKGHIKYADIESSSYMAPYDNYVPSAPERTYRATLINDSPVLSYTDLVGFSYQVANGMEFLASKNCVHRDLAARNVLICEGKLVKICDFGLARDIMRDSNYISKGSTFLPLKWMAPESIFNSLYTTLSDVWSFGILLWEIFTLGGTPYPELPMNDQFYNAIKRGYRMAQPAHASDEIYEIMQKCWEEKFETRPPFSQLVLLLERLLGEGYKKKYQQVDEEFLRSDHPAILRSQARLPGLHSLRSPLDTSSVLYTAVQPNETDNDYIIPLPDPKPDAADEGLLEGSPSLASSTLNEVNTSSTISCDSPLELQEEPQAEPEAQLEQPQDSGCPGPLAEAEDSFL

SMILES	IC50 (PDGFR Cellular IC50) [nM]	IC50 (read-out: PDGFR Cellular IC50) [nM]
Cc1ncc(NC(=O)CCN2CCCC2(C)C)cc1NC(=O)c1cnn2cc(-n3ncc4cccnc43)sc12 [Example 260, N-(5-(3-(2,2-dimethylpyrrolidin-1-yl)propanamido)-2-methylpyridin-3-yl)-2-(1H-pyrazolo[3,4-b]pyridin-1-yl)pyrazolo[5,1-b]thiazole-7-carboxamide]	3.1	
Cc1ncc(NC(=O)[C@@H]2C[C@H](C)CN2C)cc1NC(=O)c1cnn2cc(-c3cccnc3O)sc12 [Example 316, N-(5-((2S,4S)-1,4-dimethylpyrrolidine-2-carboxamido)-2-methylpyridin-3-yl)-2-(2-hydroxypyridin-3-yl)pyrazolo[5,1-b]thiazole-7-carboxamide]		58.3
Cc1ncc(NC(=O)CN2CC(C)(C)C2)cc1NC(=O)c1cnn2cc(-c3cnn(C)c3)sc12 [Example 22, N-(5-(2-(3,3-dimethylazetidin-1-yl)acetamido)-2-methylpyridin-3-yl)-2-(1-methyl-1H-pyrazol-4-yl)pyrazolo[5,1-b]thiazole-7-carboxamide]		5.3
Cc1ncc(NC(=O)CN(C)C2CCOCC2)cc1NC(=O)c1cnn2cc(-c3cnn(C(F)F)c3)sc12 [Example 295, 2-(1-(difluoromethyl)-1H-pyrazol-4-yl)-N-(2-methyl-5-(2-(methyl(tetrahydro-2H-pyran-4-yl)amino)acetamido)pyridin-3-yl)pyrazolo[5,1-b]thiazole-7-carboxamide]		21.3
Cc1ncc(NC(=O)CN2CC(C)(C)C2)cc1NC(=O)c1cnn2cc(-c3cnn(CC(N)=O)c3)sc12 [Example 267, 2-(1-(2-amino-2-oxoethyl)-1H-pyrazol-4-yl)-N-(5-(2-(3,3-dimethylazetidin-1-yl)acetamido)-2-methylpyridin-3-yl)pyrazolo[5,1-b]thiazole-7-carboxamide]		701
Cc1ncc(NC(=O)CN2CC(C)(C)C2)cc1NC(=O)c1cnn2cc(-c3cnn(CC(C)O)c3)sc12 (stereo not shown) [Example 281, N-(5-(2-(3,3-dimethylazetidin-1-yl)acetamido)-2-methylpyridin-3-yl)-2-(1-(2-hydroxypropyl)-1H-pyrazol-4-yl)pyrazolo[5,1-b]thiazole-7-carboxamide]		10.9
CNC(=O)c1cc(-c2cn3ncc(C(=O)Nc4cc(NC(=O)CN5CC(C)(C)C5)cnc4C)c3s2)ccn1 [Example 274, N-(5-(2-(3,3-dimethylazetidin-1-yl)acetamido)-2-methylpyridin-3-yl)-2-(2-(methylcarbamoyl)pyridin-4-yl)pyrazolo[5,1-b]thiazole-7-carboxamide]		51.8
Cc1ncc(NC(=O)CN2CC(C)(C)C2)cc1NC(=O)c1cnn2cc(-c3cnn(CC4CC4)c3)sc12 [Example 270, 2-(1-(cyclopropylmethyl)-1H-pyrazol-4-yl)-N-(5-(2-(3,3-dimethylazetidin-1-yl)acetamido)-2-methylpyridin-3-yl)pyrazolo[5,1-b]thiazole-7-carboxamide]		4.8
COc1ncccc1-c1cn2ncc(C(=O)Nc3cc(NC(=O)OCCN4CCCC4(C)C)cnc3C)c2s1 [Example 254, 2-(2,2-dimethylpyrrolidin-1-yl)ethyl (5-(2-(2-methoxypyridin-3-yl)pyrazolo[5,1-b]thiazole-7-carboxamido)-6-methylpyridin-3-yl)carbamate]		6.2
CC(=O)Nc1cc(-c2cn3ncc(C(=O)Nc4cc(NC(=O)CN5CC(C)(C)C5)cnc4C)c3s2)ccn1 [Example 273, 2-(2-acetamidopyridin-4-yl)-N-(5-(2-(3,3-dimethylazetidin-1-yl)acetamido)-2-methylpyridin-3-yl)pyrazolo[5,1-b]thiazole-7-carboxamide]		13.7
Cc1ncc(NC(=O)CN2CC(C)(C)C2)cc1NC(=O)c1cnn2cc(-c3ccc(CO)o3)sc12 [Example 292, N-(5-(2-(3,3-dimethylazetidin-1-yl)acetamido)-2-methylpyridin-3-yl)-2-(5-(hydroxymethyl)furan-2-yl)pyrazolo[5,1-b]thiazole-7-carboxamide]		4.2
Cc1ncc(NC(=O)CN2CC(C)(C)C2)cc1NC(=O)c1cnn2cc(-c3cnn(C(F)(F)F)c3)sc12 [Example 269, N-(5-(2-(3,3-dimethylazetidin-1-yl)acetamido)-2-methylpyridin-3-yl)-2-(1-(trifluoromethyl)-1H-pyrazol-4-yl)pyrazolo[5,1-b]thiazole-7-carboxamide]		17.5
COCCn1cc(-c2cn3ncc(C(=O)Nc4cc(NC(=O)CN5CCC6(CC6)C5)cnc4C)c3s2)cn1 [Example 326, N-(5-(2-(5-azaspiro[2.4]heptan-5-yl)acetamido)-2-methylpyridin-3-yl)-2-(1-(2-methoxyethyl)-1H-pyrazol-4-yl)pyrazolo[5,1-b]thiazole-7-carboxamide]	3	
Cc1ncc(NC(=O)CN2CCCCC23COC3)cc1NC(=O)c1cnn2cc(-c3cnn(C)c3)sc12 [Example 25, N-(5-(2-(2-oxa-5-azaspiro[3.5]nonan-5-yl)acetamido)-2-methylpyridin-3-yl)-2-(1-methyl-1H-pyrazol-4-yl)pyrazolo[5,1-b]thiazole-7-carboxamide]		27.7
Cc1ncc(NC(=O)CN2CC(C)(C)C2)cc1NC(=O)c1cnn2cc(-c3ccnc(N4CCOCC4)c3)sc12 [Example 284, N-(5-(2-(3,3-dimethylazetidin-1-yl)acetamido)-2-methylpyridin-3-yl)-2-(2-morpholinopyridin-4-yl)pyrazolo[5,1-b]thiazole-7-carboxamide]		2.8
COc1ncccc1-c1cn2ncc(C(=O)Nc3cc(NC(=O)[C@@H]4C[C@H](C)CN4C)cnc3C)c2s1 [Example 317, N-(5-((2S,4S)-1,4-dimethylpyrrolidine-2-carboxamido)-2-methylpyridin-3-yl)-2-(2-methoxypyridin-3-yl)pyrazolo[5,1-b]thiazole-7-carboxamide]		6.5
COc1ncccc1-c1cn2ncc(C(=O)Nc3cc(NC(=O)CN4CCOCC45CCC5)cnc3C)c2s1 [Example 310, N-(5-(2-(8-oxa-5-azaspiro[3.5]nonan-5-yl)acetamido)-2-methylpyridin-3-yl)-2-(2-methoxypyridin-3-yl)pyrazolo[5,1-b]thiazole-7-carboxamide]		3.3
Cc1ncc(NC(=O)CN2CCC3(CCOC3)C2)cc1NC(=O)c1cnn2cc(-c3cnn(C)c3)sc12 (stereo not shown) [Example 19, N-(5-(2-(2-oxa-7-azaspiro[4.4]nonan-7-yl)acetamido)-2-methylpyridin-3-yl)-2-(1-methyl-1H-pyrazol-4-yl)pyrazolo[5,1-b]thiazole-7-carboxamide]		12.9
Cc1ncc(NC(=O)CN2CCc3ccncc3C2)cc1NC(=O)c1cnn2cc(-c3cnn(C)c3)sc12 [Example 23, N-(5-(2-(3,4-dihydro-2,7-naphthyridin-2 (1H)-yl)acetamido)-2-methylpyridin-3-yl)-2-(1-methyl-1H-pyrazol-4-yl)pyrazolo[5,1-b]thiazole-7-carboxamide]	67.7	
Cc1ncc(NC(=O)CN2CCCC23COC3)cc1NC(=O)c1cnn2cc(-c3cnn(C)c3)sc12 [Example 20, N-(5-(2-(2-oxa-5-azaspiro[3.4]octan-5-yl)acetamido)-2-methyl-pyridin-3-yl)-2-(1-methyl-1H-pyrazol-4-yl)pyrazolo[5,1-b]thiazole-7-carboxamide]		35.9
COc1ncccc1-c1cn2ncc(C(=O)Nc3cc(NC(=O)CN4CCOC(C)(C)C4)cnc3C)c2s1 [Example 319, N-(5-(2-(2,2-dimethylmorpholino)acetamido)-2-methylpyridin-3-yl)-2-(2-methoxypyridin-3-yl)pyrazolo[5,1-b]thiazole-7-carboxamide]		2.7
Cc1ncc(NC(=O)CN2CCC3(CCCO3)C2)cc1NC(=O)c1cnn2cc(-c3cnn(C)c3)sc12 (stereo not shown) [Example 21, N-(5-(2-(1-oxa-7-azaspiro[4.4]nonan-7-yl)acetamido)-2-methylpyridin-3-yl)-2-(1-methyl-1H-pyrazol-4-yl)pyrazolo[5,1-b]thiazole-7-carboxamide]		10.9
CC(=O)Nc1cncc(-c2cn3ncc(C(=O)Nc4cc(NC(=O)CN5CC(C)(C)C5)cnc4C)c3s2)c1 [Example 277, 2-(5-acetamidopyridin-3-yl)-N-(5-(2-(3,3-dimethylazetidin-1-yl)acetamido)-2-methylpyridin-3-yl)pyrazolo[5,1-b]thiazole-7-carboxamide]		142
Cc1ncc(NC(=O)OC[C@@H]2CCCN2C)cc1NC(=O)c1cnn2cc(-c3cccc4c3cnn4C)sc12 [Example 257, (S)-(1-methylpyrrolidin-2-yl)methyl (6-methyl-5-(2-(1-methyl-1H-indazol-4-yl)pyrazolo[5,1-b]thiazole-7-carboxamido)pyridin-3-yl)carbamate]		13.1
Cc1ncc(NC(=O)CN2CC(C)(C)C2)cc1NC(=O)c1cnn2cc(-c3cccc4c3cnn4C)sc12 [Example 286, N-(5-(2-(3,3-dimethylazetidin-1-yl)acetamido)-2-methylpyridin-3-yl)-2-(1-methyl-1H-indazol-4-yl)pyrazolo[5,1-b]thiazole-7-carboxamide]		1.4
Cc1ncc(NC(=O)CN2CC(C)(C)C2)cc1NC(=O)c1cnn2cc(-c3cnn(CS(C)(=O)=O)c3)sc12 [Example 265, N-(5-(2-(3,3-dimethylazetidin-1-yl)acetamido)-2-methylpyridin-3-yl)-2-(1-((methylsulfonyl)methyl)-1H-pyrazol-4-yl)pyrazolo[5,1-b]thiazole-7-carboxamide]		114
COCCn1cc(-c2cn3ncc(C(=O)Nc4cc(NC(=O)CN5CCC[C@@H]5C)cnc4C)c3s2)cn1 [Example 325, (S)-2-(1-(2-methoxyethyl)-1H-pyrazol-4-yl)-N-(2-methyl-5-(2-(2-methylpyrrolidin-1-yl)acetamido)pyridin-3-yl)pyrazolo[5,1-b]thiazole-7-carboxamide]		10.7
Cc1ncc(NC(=O)CN2CCCC(O)C2)cc1NC(=O)c1cnn2cc(-c3cnn(C)c3)sc12 (stereo not shown) [Example 303, N-(5-(2-(3-hydroxypiperidin-1-yl)acetamido)-2-methylpyridin-3-yl)-2-(1-methyl-1H-pyrazol-4-yl)pyrazolo[5,1-b]thiazole-7-carboxamide]		121
